Experimental data taken from US10125100B2, “Kinase inhibitors” (Respivert Limited, priority 2014, dated 2018).

Tested on: Jurkat cells
Experiment: (r) Cell cytotoxicity assay
Format: cell-based, human
Conditions: 24 hours
Method: 1×10^5 Jurkat cells (immortalised human T lymphocytes) are added to the appropriate number of wells of a 96 well plate in 100 μL of media (RPMI supplemented with 10% foetal bovine serum). 1 μL of DMSO control (final concentration 1.0% v/v) or test compound (final concentration 20, 5 or 1 μg/mL) is added to the wells and incubated at 37° C., 5% CO2. After 24 hours, the plate is centrifuged at 1200 rpm for 3 minutes and the supernatant discarded. Cells are then resuspended in 150 μL (final concentration 7.5 μg/mL) of propidium iodide (PI) in PBS and incubated at 37° C., 5% CO2 for 15 minutes. After 15 minutes, cells are analysed by flow cytometry (BD accuri) using the FL3 window. The % viability is calculated as the % of cells that are PI negative in the test wells normalised to the DMSO control.

COc1cc(Nc2cc(Oc3ccc(NC(=O)Nc4cc(C(C)(C)C)cc(NS(C)(=O)=O)c4OC)c4ccccc34)ccn2)ccc1C(=O)N(C)CCN1CCOCC1 [17(ab), 4-[[4-[[4-[[5-tert-butyl-3-(methanesulfonamido)-2-methoxy-phenyl]carbamoylamino]-1-naphthyl]oxy]-2-pyridyl]amino]-2-methoxy-N-methyl-N-(2-morpholinoethyl)benzamide]
% Viability at 1 μg/mL: 108.6% | % Viability at 5 μg/mL: 95.6% | % Viability at 20 μg/mL: 93.9%

COc1cc(Nc2nccc(Oc3ccc(NC(=O)Nc4cc(C(C)(C)C)cc(NS(C)(=O)=O)c4OC)c4ccccc34)n2)ccc1C(=O)NCCCN1CCOCC1 [17(ao), 4-((4-((4-(3-(5-(tert-Butyl)-2-methoxy-3-(methylsulfonamido)phenyl)ureido)naphthalen-1-yl)oxy)pyrimidin-2-yl)amino)-2-methoxy-N-(3-morpholinopropyl)benzamide]
% Viability at 1 μg/mL: 89.2% | % Viability at 5 μg/mL: 16.5% | % Viability at 20 μg/mL: 1.6%

COc1cc(Nc2nccc(Oc3ccc(NC(=O)Nc4cc(C(C)(C)C)cc(NS(C)(=O)=O)c4OC)c4ccccc34)n2)ccc1C(=O)NCCCN1CCN(C)CC1 [17(ap), 4-((4-((4-(3-(5-(tert-Butyl)-2-methoxy-3-(methylsulfonamido)phenyl)ureido)naphthalen-1-yl)oxy)pyrimidin-2-yl)amino)-2-methoxy-N-(3-(4-methylpiperazin-1-yl)propyl)benzamide]
% Viability at 1 μg/mL: 97.8% | % Viability at 5 μg/mL: 40.1% | % Viability at 20 μg/mL: 0.6%

COc1cc(Nc2nccc(Oc3ccc(NC(=O)Nc4cc(C(C)(C)C)cc(NS(C)(=O)=O)c4OC)c4ccccc34)n2)ccc1C(=O)NCCN1CCN(C)CC1 [17(aq), 4-((4-((4-(3-(5-(tert-Butyl)-2-methoxy-3-(methylsulfonamido)phenyl)ureido)naphthalen-1-yl)oxy)pyrimidin-2-yl)amino)-2-methoxy-N-(2-(4-methylpiperazin-1-yl)ethyl)benzamide]
% Viability at 1 μg/mL: 95.1% | % Viability at 5 μg/mL: 0.2% | % Viability at 20 μg/mL: 1.3%

COc1cc(Nc2cc(Oc3ccc(NC(=O)Nc4cc(C(C)(C)C)cc(NS(C)(=O)=O)c4OC)c4ccccc34)ccn2)ccc1C(=O)NCC(=O)O [17(ar), 2-(4-((4-((4-(3-(5-(tert-Butyl)-2-methoxy-3-(methylsulfonamido)phenyl)ureido)naphthalen-1-yl)oxy)pyridin-2-yl)amino)-2-methoxybenzamido)acetic acid]
% Viability at 1 μg/mL: 96.1% | % Viability at 5 μg/mL: 96.2% | % Viability at 20 μg/mL: 95.3%

COc1cc(Nc2cc(Oc3ccc(NC(=O)Nc4cc(C(C)(C)C)cc(NS(C)(=O)=O)c4OC)c4ccccc34)ccn2)cc(OC)c1C(=O)NCCC1CCN(C)CC1 [17(at), 4-((4-((4-(3-(5-(tert-Butyl)-2-methoxy-3-(methylsulfonamido)phenyl)ureido)naphthalen-1-yl)oxy)pyridin-2-yl)amino)-2,6-dimethoxy-N-(2-(1-methylpiperidin-4-yl)ethyl)benzamide]
% Viability at 1 μg/mL: 95.2% | % Viability at 5 μg/mL: 93.2% | % Viability at 20 μg/mL: 86.6%

COc1cc(Nc2cc(Oc3ccc(NC(=O)Nc4cc(C(C)(C)C)cc(NS(C)(=O)=O)c4OC)c4ccccc34)ccn2)cc(OC)c1C(=O)NCCCN1CCN(C)CC1 [17(au), 4-((4-((4-(3-(5-(tert-Butyl)-2-methoxy-3-(methylsulfonamido)phenyl)ureido)naphthalen-1-yl)oxy)pyridin-2-yl)amino)-2,6-dimethoxy-N-(3-(4-methylpiperazin-1-yl)propyl)benzamide]
% Viability at 1 μg/mL: 94.0% | % Viability at 5 μg/mL: 91.8% | % Viability at 20 μg/mL: 80.6%

COc1cc(Nc2cc(Oc3ccc(NC(=O)Nc4cc(C(C)(C)C)cc(NS(C)(=O)=O)c4OC)c4ccccc34)ccn2)ccc1C(=O)NCCC(=O)O [17(ay), 3-(4-((4-((4-(3-(5-(tert-Butyl)-2-methoxy-3-(methylsulfonamido)phenyl)ureido)-naphthalen-1-yl)oxy)pyridin-2-yl)amino)-2-methoxybenzamido)propanoic acid]
% Viability at 1 μg/mL: 95.3% | % Viability at 5 μg/mL: 94.6% | % Viability at 20 μg/mL: 90.1%

COc1cc(Nc2nccc(Oc3ccc(NC(=O)Nc4cc(C(C)(C)C)cc(NS(C)(=O)=O)c4OC)c4ccccc34)n2)cc(OC)c1C(=O)NCCN1CCN(C)CC1 [17(az), 4-((4-((4-(3-(5-(tert-Butyl)-2-methoxy-3-(methylsulfonamido)phenyl)ureido)naphthalen-1-yl)oxy)pyrimidin-2-yl)amino)-2,6-dimethoxy-N-(2-(4-methylpiperazin-1-yl)ethyl)benzamide]
% Viability at 1 μg/mL: 105.4% | % Viability at 5 μg/mL: 93.1% | % Viability at 20 μg/mL: 4.5%

COc1cc(Nc2cc(Oc3ccc(NC(=O)Nc4cc(C(C)(C)C)cc(NS(C)(=O)=O)c4OC)c4ccccc34)ccn2)ccc1S(=O)(=O)N(C)CCN1CCN(C)CC1 [17(bb), 4-((4-((4-(3-(5-(tert-Butyl)-2-methoxy-3-(methylsulfonamido)phenyl)ureido)naphthalen-1-yl)oxy)pyridin-2-yl)amino)-2-methoxy-N-methyl-N-(2-(4-methylpiperazin-1-yl)ethyl)benzenesulfonamide]
% Viability at 1 μg/mL: 90.9% | % Viability at 5 μg/mL: 19.2% | % Viability at 20 μg/mL: 0.2%

COc1c(NC(=O)Nc2ccc(Oc3ccnc(Nc4ccc(C(=O)O)c(N(C)C)c4)n3)c3ccccc23)cc(C(C)(C)C)cc1NS(C)(=O)=O [17(bc), 4-((4-((4-(3-(5-(tert-Butyl)-2-methoxy-3-(methylsulfonamido)phenyl)ureido)naphthalen-1-yl)oxy)pyrimidin-2-yl)amino)-2-(dimethylamino)benzoic acid]
% Viability at 1 μg/mL: 93.9% | % Viability at 5 μg/mL: 89.2% | % Viability at 20 μg/mL: 10.8%

COc1cc(Nc2cc(Oc3ccc(NC(=O)Nc4cc(C(C)(C)C)cc(NS(C)(=O)=O)c4OC)c4ccccc34)ccn2)ccc1C(=O)NCCCCCN(C)C [17(bd), 4-((4-((4-(3-(5-(tert-Butyl)-2-methoxy-3-(methylsulfonamido)phenyl)ureido)naphthalen-1-yl)oxy)pyridin-2-yl)amino)-N-(5-(dimethylamino)pentyl)-2-methoxybenzamide]
% Viability at 1 μg/mL: 85.8% | % Viability at 5 μg/mL: 28.7% | % Viability at 20 μg/mL: 0.1%

CCN1CCN(CCNC(=O)c2ccc(Nc3cc(Oc4ccc(NC(=O)Nc5cc(C(C)(C)C)cc(NS(C)(=O)=O)c5OC)c5ccccc45)ccn3)cc2OC)CC1 [17(be), 4-((4-((4-(3-(5-(tert-Butyl)-2-methoxy-3-(methylsulfonamido)phenyl)ureido)naphthalen-1-yl)oxy)pyridin-2-yl)amino)-N-(2-(4-ethylpiperazin-1-yl)ethyl)-2-methoxybenzamide]
% Viability at 1 μg/mL: 92.4% | % Viability at 5 μg/mL: 0.7% | % Viability at 20 μg/mL: 0.5%

COc1cc(Nc2cc(Oc3ccc(NC(=O)Nc4cc(C(C)(C)C)cc(NS(C)(=O)=O)c4OC)c4ccccc34)ccn2)ccc1C(=O)NCCN1CCN(C(C)C)CC1 [17(bf), 4-((4-((4-(3-(5-(tert-Butyl)-2-methoxy-3-(methylsulfonamido)phenyl)ureido)naphthalen-1-yl)oxy)pyridin-2-yl)amino)-N-(2-(4-isopropylpiperazin-1-yl)ethyl)-2-methoxybenzamide]
% Viability at 1 μg/mL: 90.7% | % Viability at 5 μg/mL: 1.5% | % Viability at 20 μg/mL: 0.6%

COc1cc(Nc2cc(Oc3ccc(NC(=O)Nc4cc(C(C)(C)C)cc(NS(C)(=O)=O)c4OC)c4ccccc34)ccn2)ccc1C(=O)NCCC1(O)CCN(C)CC1 [17(bg), 4-((4-((4-(3-(5-(tert-Butyl)-2-methoxy-3-(methylsulfonamido)phenyl)ureido)naphthalen-1-yl)oxy)pyridin-2-yl)amino)-N-(2-(4-hydroxy-1-methylpiperidin-4-yl)ethyl)-2-methoxy benzamide]
% Viability at 1 μg/mL: 86.5% | % Viability at 5 μg/mL: 60.0% | % Viability at 20 μg/mL: 0.3%

COc1cc(Nc2cc(Oc3ccc(NC(=O)Nc4cc(C(C)(C)C)cc(NS(C)(=O)=O)c4OC)c4ccccc34)ccn2)ccc1C(=O)N(C)CCN1CCN(C)CC1 [17(bh), 4-((4-((4-(3-(5-(tert-Butyl)-2-methoxy-3-(methylsulfonamido)phenyl)ureido)naphthalen-1-yl)oxy)pyridin-2-yl)amino)-2-methoxy-N-methyl-N-(2-(4-methylpiperazin-1-yl)ethyl)benzamide]
% Viability at 1 μg/mL: 99.5% | % Viability at 5 μg/mL: 67.8% | % Viability at 20 μg/mL: 0.6%

COc1cc(Nc2cc(Oc3ccc(NC(=O)Nc4cc(C(C)(C)C)cc(NS(C)(=O)=O)c4OC)c4ccccc34)ccn2)ccc1C(=O)NCCN1CCN(C)CC1(C)C [17(bi), 4-((4-((4-(3-(5-(tert-Butyl)-2-methoxy-3-(methylsulfonamido)phenyl)ureido)naphthalen-1-yl)oxy)pyridin-2-yl)amino)-2-methoxy-N-(2-(2,2,4-trimethylpiperazin-1-yl)ethyl)benzamide]
% Viability at 1 μg/mL: 97.4% | % Viability at 5 μg/mL: 0.8% | % Viability at 20 μg/mL: 0.6%

COc1cc(Nc2cc(Oc3ccc(NC(=O)Nc4cc(C(C)(C)C)cc(NS(C)(=O)=O)c4OC)c4ccccc34)ccn2)ccc1C(=O)N[C@@H](CO)C(=O)O [17(bj), (S)-2-(4-((4-((4-(3-(5-(tert-Butyl)-2-methoxy-3-(methylsulfonamido)phenyl)ureido)-naphthalen-1-yl)oxy)pyridin-2-yl)amino)-2-methoxybenzamido)-3-hydroxypropanoic acid]
% Viability at 1 μg/mL: 96.2% | % Viability at 5 μg/mL: 96.6% | % Viability at 20 μg/mL: 94.8%
